We go through nine compounds from ChEMBL document CHEMBL1154272, “Function-oriented biosynthesis of beta-lactone proteasome inhibitors in Salinispora tropica” (J Med Chem, 2009).

The nature of experiment [1]: Inhibition of chymotrypsin like activity of yeast 20S proteasome beta 5 subunit after 30 mins by fluorescence assay. The arrangement: species or system Saccharomyces cerevisiae.
Experiment [2] relates to HCT-116. As to the kind of experiment: Cytotoxicity against human HCT116 cells after 72 hrs by MTS/PMS assay. It is filed as functional, cell-based. The note with it: HCT-116, 72 h.

What is called IC50 is the concentration needed to halve the response being measured.

Consider `C[C@@]12OC(=O)[C@]1([C@@H](O)[C@@H]1C=CCC1)NC(=O)[C@@H]2CCCl` [SALINOSPORAMIDE X7], for which the figures for the IC50 in experiment [1] and in experiment [2] were 2.2 nM and 5.9 nM, respectively.

With `CC(C)[C@H](O)[C@@]12NC(=O)[C@H](CCCl)[C@]1(C)OC2=O` [ANTIPROTEALIDE], the IC50 in experiment [1] is 101 nM; in experiment [2] it was 777 nM.

As for `C[C@@]12OC(=O)[C@]1([C@@H](O)C1CCCCC1)NC(=O)[C@@H]2CCCl`, the IC50 in experiment [1] was 27.5 nM; in experiment [2], 176 nM.

As to `C[C@@]12OC(=O)[C@]1([C@@H](O)c1ccccc1)NC(=O)[C@@H]2CCCl` [SALINOSPORAMIDE X4], the values for the IC50 in experiment [1] and in experiment [2] were 1030 nM and 6880 nM, respectively.

`C[C@@]12OC(=O)[C@]1([C@@H](O)[C@@H]1C=CCCC1)NC(=O)[C@@H]2CCCl` [MARIZOMIB]: the figures for the IC50 in experiment [1] and in experiment [2] were 1.9 nM and 16 nM, respectively.

Take `C[C@@]12OC(=O)[C@]1([C@@H](O)C1CCC1)NC(=O)[C@@H]2CCCl` [SALINOSPORAMIDE X3]: the IC50 in experiment [1] came out at 93.4 nM; in experiment [2] it was 188 nM.

With `C[C@@]12OC(=O)[C@]1([C@@H](O)C1CCCC1)NC(=O)[C@@H]2CCCl`, the IC50 was determined as 9.3 nM in experiment [1] and 54 nM in experiment [2].

In the case of `CCC[C@H](O)[C@@]12NC(=O)[C@H](CCCl)[C@]1(C)OC2=O` [SALINOSPORAMIDE X5], the values for the IC50 in experiment [1] and in experiment [2] were 245 nM and 1090 nM, respectively.

Turning to `CCCC[C@H](O)[C@@]12NC(=O)[C@H](CCCl)[C@]1(C)OC2=O` [SALINOSPORAMIDE X6], the half-maximal inhibitory concentration (IC50) worked out at 132 nM in experiment [1] and 1110 nM in experiment [2].
